# Assay results reported in ChEMBL document CHEMBL1177684, “Synthesis, molecular modeling, and biological evaluation of cinnamic acid metronidazole ester derivatives as novel anticancer agents” (Bioorg Med Chem, 2010).
# Experiments:
# MCF7 = experiment: Antiproliferative activity against human MCF7 cells after 48 hrs by MTT assay; details: MCF7, 48 h
# [1] = target: Epidermal growth factor receptor (Homo sapiens, UniProt P00533)
# Description: Inhibition of human recombinant His6x-tagged EGFR autophosphorylation expressed in Sf9 cells after 1 hr by ELISA
# [2] = target: Receptor tyrosine-protein kinase erbB-2 (Homo sapiens, UniProt P04626)
# Chain of Receptor tyrosine-protein kinase erbB-2 (P04626 whole entry): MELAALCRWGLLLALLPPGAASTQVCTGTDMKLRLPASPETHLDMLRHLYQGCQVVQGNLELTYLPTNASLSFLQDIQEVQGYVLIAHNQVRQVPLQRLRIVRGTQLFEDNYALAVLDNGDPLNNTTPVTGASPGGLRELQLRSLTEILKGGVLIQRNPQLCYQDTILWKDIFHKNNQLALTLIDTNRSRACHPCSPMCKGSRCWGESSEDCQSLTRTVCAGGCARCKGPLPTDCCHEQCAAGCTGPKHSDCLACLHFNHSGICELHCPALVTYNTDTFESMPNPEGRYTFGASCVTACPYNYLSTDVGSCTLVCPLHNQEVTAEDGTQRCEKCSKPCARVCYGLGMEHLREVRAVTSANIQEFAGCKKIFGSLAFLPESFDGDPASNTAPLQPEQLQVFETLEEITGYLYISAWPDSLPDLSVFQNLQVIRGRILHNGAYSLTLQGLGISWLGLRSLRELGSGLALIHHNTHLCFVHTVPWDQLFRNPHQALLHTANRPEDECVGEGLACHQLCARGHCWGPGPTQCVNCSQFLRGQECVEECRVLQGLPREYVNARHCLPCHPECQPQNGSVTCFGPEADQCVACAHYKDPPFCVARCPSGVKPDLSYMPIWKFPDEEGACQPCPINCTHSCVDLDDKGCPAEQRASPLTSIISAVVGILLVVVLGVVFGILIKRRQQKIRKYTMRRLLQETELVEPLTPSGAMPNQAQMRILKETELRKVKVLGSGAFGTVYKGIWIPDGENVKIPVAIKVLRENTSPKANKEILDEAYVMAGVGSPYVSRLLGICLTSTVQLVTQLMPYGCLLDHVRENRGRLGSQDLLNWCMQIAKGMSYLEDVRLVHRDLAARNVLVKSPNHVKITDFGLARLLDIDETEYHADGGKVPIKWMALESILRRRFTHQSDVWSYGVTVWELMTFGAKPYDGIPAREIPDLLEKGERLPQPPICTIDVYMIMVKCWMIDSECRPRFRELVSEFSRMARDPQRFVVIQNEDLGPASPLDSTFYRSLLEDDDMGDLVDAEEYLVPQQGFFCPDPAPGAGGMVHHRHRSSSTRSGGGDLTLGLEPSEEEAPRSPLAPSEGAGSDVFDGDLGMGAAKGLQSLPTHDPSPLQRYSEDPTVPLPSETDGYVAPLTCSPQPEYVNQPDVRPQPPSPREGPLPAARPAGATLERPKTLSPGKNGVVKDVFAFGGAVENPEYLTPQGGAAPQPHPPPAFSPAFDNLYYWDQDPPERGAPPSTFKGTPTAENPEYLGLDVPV
# Description: Inhibition of human recombinant His6x-tagged HER2 autophosphorylation expressed in Sf9 cells after 1 hr by ELISA
# Chain of Epidermal growth factor receptor (P00533 whole entry): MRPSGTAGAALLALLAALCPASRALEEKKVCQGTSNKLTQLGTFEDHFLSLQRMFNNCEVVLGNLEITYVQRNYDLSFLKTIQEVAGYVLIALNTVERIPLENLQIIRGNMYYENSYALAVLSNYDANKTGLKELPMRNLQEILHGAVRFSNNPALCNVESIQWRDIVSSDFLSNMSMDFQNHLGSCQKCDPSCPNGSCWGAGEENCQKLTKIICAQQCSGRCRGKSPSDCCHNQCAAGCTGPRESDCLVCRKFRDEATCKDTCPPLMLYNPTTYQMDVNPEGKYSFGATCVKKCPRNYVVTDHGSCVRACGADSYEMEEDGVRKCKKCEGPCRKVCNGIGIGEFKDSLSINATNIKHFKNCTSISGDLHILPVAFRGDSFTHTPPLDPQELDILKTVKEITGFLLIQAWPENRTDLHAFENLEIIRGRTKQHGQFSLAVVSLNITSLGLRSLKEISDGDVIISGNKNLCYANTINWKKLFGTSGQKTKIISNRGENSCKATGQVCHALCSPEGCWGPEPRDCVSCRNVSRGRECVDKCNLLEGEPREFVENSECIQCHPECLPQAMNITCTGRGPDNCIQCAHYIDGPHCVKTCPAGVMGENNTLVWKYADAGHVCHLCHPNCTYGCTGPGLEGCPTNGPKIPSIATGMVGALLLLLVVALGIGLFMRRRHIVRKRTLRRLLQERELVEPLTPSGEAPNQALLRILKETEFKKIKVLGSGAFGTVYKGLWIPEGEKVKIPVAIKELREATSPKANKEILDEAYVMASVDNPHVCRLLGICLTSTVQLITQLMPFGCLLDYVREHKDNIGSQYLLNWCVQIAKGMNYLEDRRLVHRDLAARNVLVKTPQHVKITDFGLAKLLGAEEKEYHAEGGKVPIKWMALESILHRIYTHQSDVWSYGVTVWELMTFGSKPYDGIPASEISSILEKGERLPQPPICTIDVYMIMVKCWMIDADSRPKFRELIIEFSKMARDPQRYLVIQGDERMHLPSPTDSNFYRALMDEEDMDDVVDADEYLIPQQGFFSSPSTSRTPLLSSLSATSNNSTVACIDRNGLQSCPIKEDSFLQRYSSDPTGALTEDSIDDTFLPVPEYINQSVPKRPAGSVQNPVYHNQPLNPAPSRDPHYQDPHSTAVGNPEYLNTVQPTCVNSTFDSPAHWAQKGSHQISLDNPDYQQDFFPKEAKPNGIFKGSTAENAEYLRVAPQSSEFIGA
SMILES,IC50 (MCF7) [µM],IC50 [1] [µM],IC50 [2] [µM]
Cc1ncc([N+](=O)[O-])n1CCOC(=O)/C=C/c1ccccc1Cl,18,20.8,36.5
Cc1ncc([N+](=O)[O-])n1CCOC(=O)/C=C/c1ccccc1F,15,26.7,41.3
Cc1ncc([N+](=O)[O-])n1CCOC(=O)/C=C/c1ccc2ccccc2c1,4.1,5.76,9.24
Cc1ncc([N+](=O)[O-])n1CCOC(=O)/C=C/c1ccccc1Br,16,24.3,44.8
Cc1ncc([N+](=O)[O-])n1CCOC(=O)/C=C/c1ccc(F)cc1,3.76,4.12,5.84
Cc1ncc([N+](=O)[O-])n1CCOC(=O)/C=C/c1cccc(F)c1,5.88,12.4,16.8
Cc1ncc([N+](=O)[O-])n1CCOC(=O)/C=C/c1ccccc1,4.41,7.83,10.8
COc1ccc(/C=C/C(=O)OCCn2c([N+](=O)[O-])cnc2C)cc1,5.49,10.8,14.3
Cc1ncc([N+](=O)[O-])n1CCOC(=O)/C=C/c1cccc([N+](=O)[O-])c1,5.68,14.5,19.3
Cc1ncc([N+](=O)[O-])n1CCOC(=O)/C=C/c1ccc(Cl)cc1,3.05,3.62,4.77

# More lines, now with the values ahead:
IC50 (MCF7) [µM],IC50 [1] [µM],IC50 [2] [µM],SMILES
4.28,8.11,9.65,Cc1ccc(/C=C/C(=O)OCCn2c([N+](=O)[O-])cnc2C)cc1
20,32,> 50,COc1ccccc1/C=C/C(=O)OCCn1c([N+](=O)[O-])cnc1C
17,25,40,Cc1ncc([N+](=O)[O-])n1CCOC(=O)/C=C/c1ccccc1[N+](=O)[O-]
3.4,3.88,5.03,Cc1ncc([N+](=O)[O-])n1CCOC(=O)/C=C/c1cccc2ccccc12
0.36,0.62,2.15,Cc1ncc([N+](=O)[O-])n1CCOC(=O)/C=C/c1ccc(-c2ccccc2)cc1
4.96,6.82,9.97,Cc1ncc([N+](=O)[O-])n1CCOC(=O)/C=C/c1ccc(C(C)C)cc1
–,–,3.46,Cc1ncc([N+](=O)[O-])n1CCOC(=O)/C=C/c1ccc(OCc2ccccc2)cc1
5.75,13.9,18.8,COc1cccc(/C=C/C(=O)OCCn2c([N+](=O)[O-])cnc2C)c1
2.45,3.24,4.65,Cc1ncc([N+](=O)[O-])n1CCOC(=O)/C=C/c1ccc(Br)cc1
